Experimental data from US7601713B2, “Kinase inhibitors and their uses” (Rigel Pharmaceuticals, Inc., priority 2005, dated 2009).
pIC50: −log10 of the molar value.

How the values were obtained:
Axl kinase = biological target: T1, Axl kinase (Homo sapiens, UniProt P30530); assay: Phospho-Akt in-cell Western assay (Axl antibody cross-linking, Hela cells); assay type: cell-based; conditions: phospho-Akt readout, read-out: IC50, inhibition of Axl kinase
T1 construct: endogenous in cells; host or cells: HeLa cells
T1 sequence (P30530 26-894): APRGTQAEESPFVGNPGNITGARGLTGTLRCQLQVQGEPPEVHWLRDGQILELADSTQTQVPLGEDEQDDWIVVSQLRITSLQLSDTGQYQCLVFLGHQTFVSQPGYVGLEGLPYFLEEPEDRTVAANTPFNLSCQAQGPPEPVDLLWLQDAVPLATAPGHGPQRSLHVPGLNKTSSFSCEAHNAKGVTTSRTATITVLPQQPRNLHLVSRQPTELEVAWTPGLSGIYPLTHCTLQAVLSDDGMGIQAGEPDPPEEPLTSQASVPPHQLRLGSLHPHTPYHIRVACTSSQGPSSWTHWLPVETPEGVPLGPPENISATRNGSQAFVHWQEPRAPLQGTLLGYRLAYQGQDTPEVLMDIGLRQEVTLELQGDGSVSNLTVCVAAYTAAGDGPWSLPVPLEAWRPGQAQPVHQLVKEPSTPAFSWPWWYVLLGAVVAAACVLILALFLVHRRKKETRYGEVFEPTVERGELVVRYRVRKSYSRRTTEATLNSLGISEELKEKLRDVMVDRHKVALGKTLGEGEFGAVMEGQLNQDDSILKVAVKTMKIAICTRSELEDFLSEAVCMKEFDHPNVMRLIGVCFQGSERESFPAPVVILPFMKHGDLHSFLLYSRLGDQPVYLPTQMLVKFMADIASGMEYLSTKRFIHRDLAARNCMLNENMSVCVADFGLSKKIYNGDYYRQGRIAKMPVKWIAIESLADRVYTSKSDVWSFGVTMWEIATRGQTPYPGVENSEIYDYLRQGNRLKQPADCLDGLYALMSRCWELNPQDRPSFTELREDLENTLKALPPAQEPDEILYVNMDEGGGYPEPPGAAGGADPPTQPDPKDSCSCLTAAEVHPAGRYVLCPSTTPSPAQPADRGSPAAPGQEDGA
Method: The compounds of the invention were tested in the following assay for their ability to inhibit Axl activity.
Phospho-Akt in-Cell Western Assay
Starvation medium: For Axl stimulation: 0.5% FCS (fetal calf serum) in DMEM, plus Axl/Fc (extracellular domain of AXL fused to immunoglobulin Fc region) (R&D, 154-AL) 500 ng/mL.
Axl antibody cross-linking: • 1st: Mouse anti-Axl (R&D, MAB 154). • 2nd: Biotin-SP-conjugated AffiniPure goat anti-mouse IgG (H+L) (Jackson ImmunoResearch #115-065-003).
Primary antibody: Rabbit anti-human Phospho-Akt antibody (Cell Signaling 9271): 1×250 diluted in blocking buffer.
Secondary antibody: HRP (horse radish peroxidase)-conjugated Goat anti-Rabbit secondary, stock solution: Jackson lmmunoResearch (Goat anti-Rabbit HRP, #111-035-144) 1:1 diluted in glycerol, store at −20° C. The working solution: 1×2000 dilution of stock in blocking buffer.
A 96 well TC (tissue culture treated) plate was coated with 10 μg/mL poly-L-Lysine at 37° C. for 30 min, washed twice with PBS, and air-dried for 5 minutes before cells were added. Hela cells were seeded at 10,000 cells/well and the cells were starved in 100 μL starvation medium containing Axl/Fc for 24 hrs.
The cells were pre-treated with test compounds by adding 100 μL of 2× test compound to the starvation medium on the cells. The cells were incubated at 37° C. for 1 hr before stimulation.
The cells were stimulated by Axl-antibody cross-linking as follows: A 5× 1st/2nd Axl antibody mixture was made (37.5 μg/mL 1st/100 μg/mL 2nd) in starvation medium and nutated at 4° C. with thorough mixing for 1-2 hours for clustering. The resulting mix was warmed to 37° C. 50 μL of 5× Axl 1st/2nd of antibody cluster was added to the cells and the cells were incubated at 37° C. for 5 min.
After 5 minutes stimulation, the plate was flicked to remove medium and the plate was tapped onto paper towels. Formaldehyde (4.0% in PBS, 100 μL) was added to fix the cells and the cells were incubated at ambient temperature for 20 min without shaking.
The cells were washed with a plate washer buffer to remove the formaldehyde solution. The plate was flicked to remove excess wash buffer and tapped onto paper towels. Quenching buffer (100 μL) was added to each well and the cells were incubated at ambient temperature for 20 minutes without shaking.
The cells were washed with a plate washer buffer to remove the quenching buffer. Blocking buffer (100 μL) was added and the cells were incubated at ambient temperature for at least an hour with gentle shaking.
The cells were washed with a plate washer buffer and diluted primary antibody (50 μL) was added to each well (blocking buffer was added to the negative control wells instead). The plates were incubated overnight at 4° C. with gentle shaking.
The wash buffer was removed, diluted secondary antibody (100 μL) was added, and the cells were incubated at ambient temperature for 1 hour with gentle shaking. During the incubation, the chemiluminescent reagent was brought to ambient temperature.
The secondary antibody was removed by washing the cells 1× with wash buffer, 1× with PBS by plate washer. The PBS was removed from the plate and the chemiluminescent reagent (80 μL: 40 μL A and 40 μL B) was added to each well at ambient temperature.
The resulting chemiluminescence was read with a Luminomitor within 10 minutes to minimize changes in signal intensity. After reading the chemiluminescence, the cells were washed 1× with wash buffer and 1× with PBS by plate washer. The plate was tapped onto paper towels to remove excess liquid from wells and air-dried at ambient temperature for 5 minutes.
Crystal Violet working solution (60 μL) was added to each well and the cells were incubated at ambient temperature for 30 min. The crystal violet solution was removed, and the wells were rinsed with PBS, then washed 3× with PBS (200 μL) for 5 minutes each.
5% SDS solution (70 μL) was added to each well and the cells were incubated on a shaker for 30 min at ambient temperature. […]

Syk kinase = Syk kinase (Homo sapiens, UniProt P43405); assay: cell-based Syk assay; conditions: read-out: IC50, inhibition of Syk kinase
[1] = tested on: JAK kinases (JAK1 and JAK3); assay: JAK inhibition: IL-4-stimulated CD23 upregulation in human Ramos B-cells, FACS; assay type: cell-based; conditions: IL-4 stimulated Ramos B-cells, read-out: IC50, inhibition of JAK kinases in cellular assay
Method: JAK inhibition was tested in human Ramos B-cells activated with IL-4. Twenty to 24 hours post stimulation, the cells are stained for upregulation of CD23 and analyzed by FACS. Stimulation of the B-cells with IL-4 leads to the activation of the JAK/STAT pathway through phosphorylation of the JAK kinase JAK1 and JAK3, which in turn phosphorylate and activate transcription of factor […].
For the assay, human Ramos B-cells (ATCC, Catalog No. CRL-1596) are cultured in RPMI 1640 medium (Cellgro, Catalog No. 10-040-CM) containing 10% fetal bovine serum (JRH, Catalog No. 12106-500M) according to the propagation protocol supplied with the cells, and maintained at a density of approximately 3.5×10^5 cells/ml. The day before the assay, the cells are diluted to 3.5×10^5 cells/ml to insure they are in the logarithmic growth phase. The cells are spun down, and suspended in RPMI 1640 medium containing 5% fetal bovine serum to a density of 3.5×10^4 cells/ml and aliquots dispensed into a 96-well tissue culture plate. Cells are incubated with test compound (dissolved in DMSO) or DMSO (control) for 1 hr at 37° C. and then stimulated with IL-4 (Pepotech, Catalog No. 200-04) for 20-24 hours (final concentration is 50 Units/ml). Cells are then spun down, stained with anti-CD23-PE antibody (BD Pharmigen, Catalog No. 555711) and analyzed by FACS.

SMILES | pIC50 (Axl kinase) | pIC50 (Syk kinase) | pIC50 [1]
CONC(=O)Cc1ccc(Nc2nc(NC3C4C=CC(C4)C3C(N)=O)c3nc[nH]c3n2)cc1 (racemic) [Compound 228, Racemic-(2-exo,3-exo-)-N6-(3-aminocarbonylbicyclo [2.2.1]hept-5-en-2-yl)-N2-[4-(N-methoxy)-aminocarbonyl-inethylphenyl]-1H-purine-2,6-diamine] | < 5.00 | < 5.00 | –
NC(=O)C1C2C=CC(C2)C1Nc1nc(Nc2cccc(OCc3cccnc3)c2)nc2[nH]cnc12 (racemic) [Compound 226, Racemic-(2-exo,3-exo-)-N6-(3-aminocarbonylbicyclo [2.2.1]hept-5-en-2-yl)-N2-[3-(3-pyridinylmethoxy)phenyl]-1H-purine-2,6-diamine] | > 5.30 | – | < 5.00
Cc1csc2c(NC3C4C=CC(C4)C3C(N)=O)nc(Nc3ccc(OCCN4CCCC4)c(F)c3)nc12 (racemic) [Compound 241, Racemic-(2-exo,3-exo-)-7-methyl-N4-(3-aminocarbonylbicyclo [2.2.1]hept-5-en-2-yl)-N2-[3-fluoro-4-[2-(1-pyrrolidinyl)ethoxy]phenyl]-thieno[3,2-d]pyrimidine-2,4-diamine] | > 5.30 | – | > 5.30
CONC(=O)Cc1cccc(Nc2nc(NC3C4C=CC(C4)C3C(N)=O)c3nc[nH]c3n2)c1 (racemic) [Compound 230, Racemic-(2-exo,3-exo-)-N6-(3-aminocarbonylbicyclo [2.2.1]hept-5-en-2-yl)-N2-[3-(N-methoxy)-aminocarbonyl-methylphenyl]-1H-purine-2,6-diamine] | < 5.00 | > 5.30 | –
NC(=O)C1C2C=CC(C2)C1Nc1nc(Nc2cccc(OCc3ccncc3)c2)nc2[nH]ccc12 (racemic) [Compound 223, Racemic-(2-exo,3-exo)-N4-(3-aminocarbonylbicyclo [2.2.1]hept-5-en-2-yl)-N2-[3-(4-pyridinylmethoxy)] phenyl-1H-pyrrolo[2,3-d]pyrimidine-2,4-diamine] | > 5.00 | – | < 5.00
NC(=O)C1C2C=CC(C2)C1Nc1nc(Nc2ccc(OCCN3CCCC3)c(F)c2)nc2[nH]cnc12 (racemic) [Compound 236, Racemic-(2-exo,3-exo-)-N6-(3-aminocarbonylbicyclo [2.2.1]hept-5-en-2-yl)-N2-[3-fluoro-4-[2-(1-pyrrolidinyl)ethoxy]phenyl]-1H-purine-2,6-diamine] | – | > 5.00 | –
NC(=O)C1C2C=CC(C2)C1Nc1nc(Nc2cccc(OCc3cccnc3)c2)nc2[nH]ccc12 (racemic) [Compound 225, Racemic-(2-exo,3-exo)-N4-(3-aminocarbonylbicyclo [2.2.1]hept-5-en-2-yl)-N2-[3-(3-pyridinylmethoxy)] phenyl-1H-pyrrolo[2,3-d]pyrimidine-2,4-diamine] | > 5.30 | – | < 5.00
Cc1csc2c(NC3C4C=CC(C4)C3C(N)=O)nc(Nc3ccc(S(N)(=O)=O)cc3)nc12 (racemic) [Compound 242, Racemic-(2-exo,3-exo-)-7-methyl-N4-(3-aminocarbonylbicyclo [2.2.1]hept-5-en-2-yl)-N2-(4-aminosulfonyl)phenyl-thieno[3,2-d]pyrimidine-2,4-diamine] | < 5.00 | – | > 5.30
CONC(=O)C1C2C=CC(C2)C1Nc1nc(Nc2cccc(OC)c2)nc2[nH]ccc12 (racemic) [Compound 233, Racemic-(2-exo,3-exo)-N4-(N-methoxy-3-aminocarbonylbicyclo [2.2.1]hept-5-en-2-yl)-N2-(3-methoxyphenyl)-1H-pyrrolo[2,3-d]pyrimidine-2,4-diamine] | > 5.30 | – | > 5.30
NC(=O)C1C2C=CC(C2)C1Nc1nc(Nc2cccc(OCc3ccncc3)c2)nc2[nH]cnc12 (racemic) [Compound 224, Racemic-(2-exo,3-exo-)-N6-(3-aminocarbonylbicyclo [2.2.1]hept-5-en-2-yl)-N2-[3-(4-pyridinylinethoxy)] phenyl-1H-purine-2,6-diamine] | > 5.00 | – | < 5.00
CONC(=O)Cc1ccc(Nc2nc(NC3C4C=CC(C4)C3C(N)=O)c3cc[nH]c3n2)cc1 (racemic) [Compound 227, Racemic-(2-exo,3-exo)-N4-(3-aminocarbonylbicyclo [2.2.1]hept-5-en-2-yl)-N2-[4-(N-methoxy)-aminocarbonyl-methylphenyl]-1H-pyrrolo[2,3-d]pyrimidine-2,4-diamine] | < 5.00 | > 5.00 | –
NC(=O)C1C2C=CC(C2)C1Nc1nc(Nc2ccc(OCCN3CCCC3)c(Cl)c2)nc2[nH]cnc12 (racemic) [Compound 235, Racemic-(2-exo,3-exo-)-N6-(3-aminocarbonylbicyclo [2.2.1]hept-5-en-2-yl)-N2-[3-chloro-4-[2-(1-pyrrolidinyl)ethoxy]phenyl]-1H-purine-2,6-diamine] | – | > 5.30 | –
Cc1csc2c(NC3C4C=CC(C4)C3C(N)=O)nc(Nc3ccc(OCCN4CCCC4)cc3)nc12 (racemic) [Compound 240, Racemic-(2-exo,3-exo-)-7-methyl-N4-(3-aminocarbonylbicyclo [2.2.1]hept-5-en-2-yl)-N2-[4-[2-(1-pyrrolidinyl)ethoxy]phenyl]-thieno[3,2-d]pyrimidine-2,4-diamine] | > 5.00 | – | > 5.30
